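Five concentrations, 48 hours, 96-well plates. Here, GI50 denotes the concentration required for 50% inhibition of growth. TGI marks complete inhibition of growth.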
Experiments:
Experiment in all cases: NCI-60 cell line screen, 48 h
[1] = tested on: HL-60(TB) leukemia
[2] = tested on: HT29 colon
[3] = tested on: KM12 colon
[4] = tested on: HOP-92 NSCLC
[5] = tested on: OVCAR-4 ovarian
[6] = tested on: UACC-257 melanoma
[7] = tested on: NCI-H460 lung
[8] = tested on: LOX IMVI melanoma
[9] = tested on: SR leukemia
[10] = tested on: RXF 393 renal

## CC12O[C@H](c3ccccc3)[C@H](c3ccccc3)N1C(=O)C1(C(=O)OCc3ccccc3)CC12 (some centres not stated)
[1]
  TGI: > 100 µM
[2]
  TGI: > 100 µM
[3]
  TGI: > 100 µM
[4]
  TGI: > 100 µM
[5]
  TGI: > 100 µM
[6]
  TGI: > 100 µM
[7]
  TGI: > 100 µM
[8]
  TGI: > 100 µM

## Cc1cccc(-c2cc(=O)c3ccc(C)nc3[nH]2)c1
[1]
  TGI: 0.526 µM
[2]
  TGI: 1.82 µM
[3]
  TGI: 20.5 µM
[4]
  TGI: 57.7 µM
[5]
  TGI: > 100 µM
[7]
  TGI: 19.5 µM
[8]
  TGI: > 100 µM
[9]
  TGI: 2.07 µM
[10]
  TGI: > 100 µM

## Cc1ccc(NC(=O)CC(=O)n2nc(-c3ccccc3)c(N=Nc3ccc(Cl)cc3)c2-c2ccccc2)cc1
[1]
  TGI: 17.7 µM
[2]
  TGI: 40.4 µM
[3]
  TGI: > 100 µM
[4]
  TGI: 89 µM
[5]
  TGI: > 100 µM
[6]
  TGI: > 100 µM
[7]
  TGI: > 100 µM
[8]
  TGI: 29.9 µM

## CC1(C)OCC2OC3([C@H](O)CCO)OC(C)(C)OC3C2O1 (some centres not stated)
[2]
  TGI: > 100 µM
[3]
  TGI: > 100 µM
[4]
  TGI: > 100 µM
[5]
  TGI: > 100 µM
[6]
  TGI: > 100 µM
[7]
  TGI: > 100 µM
[8]
  TGI: > 100 µM
[9]
  TGI: > 100 µM
[10]
  TGI: > 100 µM

## Cc1cc(N(CCC#N)CCC#N)ccc1/C=C(\NC(=O)/C=C/c1ccccc1)NC(=O)Nc1ccc(Cl)cc1
[1]
  TGI: > 100 µM
[2]
  TGI: > 100 µM
[3]
  TGI: > 100 µM
[4]
  TGI: > 100 µM
[5]
  TGI: > 100 µM
[6]
  TGI: > 100 µM
[7]
  TGI: > 100 µM
[8]
  TGI: > 100 µM
[10]
  TGI: 52.6 µM

## C[C@@]12CC[C@H]3[C@@H]4CCC(=O)N[C@@]4(C)CC[C@@H]3[C@@]1(C)CC[C@H](OC(=O)Cc1ccc(N(CCCl)CCCl)cc1)C2
[2]
  TGI: 27.8 µM
[3]
  TGI: 44.5 µM
[4]
  TGI: 35.3 µM
[5]
  TGI: 32.2 µM
[6]
  TGI: 55.8 µM
[7]
  TGI: 28.2 µM
[8]
  TGI: 27.8 µM
[10]
  TGI: 32 µM

## O=[N+]([O-])c1ccc(NC2OCC(O)C(O)C2O)cc1 (configuration not stated)
[2]
  TGI: > 100 µM
[3]
  TGI: > 100 µM
[4]
  TGI: > 100 µM
[5]
  TGI: > 100 µM
[6]
  TGI: > 100 µM
[7]
  TGI: > 100 µM
[8]
  TGI: > 100 µM
[9]
  TGI: > 100 µM
[10]
  TGI: > 100 µM

## CC(C)(C)c1cc(-c2ccc(-c3cc(C(C)(C)C)c(O)c(C(C)(C)C)c3)cc2)cc(C(C)(C)C)c1O
[1]
  TGI: > 100 µM
[2]
  TGI: > 100 µM
[3]
  TGI: > 100 µM
[4]
  TGI: > 100 µM
[5]
  TGI: > 100 µM
[6]
  TGI: > 100 µM
[8]
  TGI: > 100 µM
[9]
  TGI: > 100 µM
[10]
  TGI: > 100 µM

## CN(C)c1ccc(/C=C/c2sc3ccc4ccccc4c3[n+]2C)cc1
[1]
  GI50: 0.33 µM
  TGI: 1.18 µM
[4]
  GI50: 0.636 µM
  TGI: 2.84 µM

## CN1CCN(CC(=O)Nc2ccc3ncnc(Nc4ccc(Oc5cccc(C(F)(F)F)c5)c(Cl)c4)c3c2)CC1
[3]
  GI50: 1.79 µM
  TGI: 3.3 µM
[4]
  GI50: 1.09 µM
  TGI: 2.46 µM
[5]
  GI50: 1.51 µM
  TGI: 3.02 µM
[6]
  GI50: 1.93 µM
  TGI: 3.79 µM
[7]
  GI50: 1.74 µM
  TGI: 3.29 µM
[9]
  GI50: 0.371 µM
  TGI: 2.2 µM
[10]
  GI50: 1.41 µM
  TGI: 2.89 µM

## Cn1c(C(C#N)c2cc(Cl)ncn2)nc2ccccc21 (configuration not stated)
[2]
  TGI: > 100 µM
[3]
  TGI: > 100 µM
[4]
  TGI: > 100 µM
[5]
  TGI: > 100 µM
[6]
  TGI: > 100 µM
[7]
  TGI: > 100 µM
[8]
  TGI: > 100 µM
[10]
  TGI: > 100 µM

## O=c1ccc2ccccc2o1
[1]
  TGI: > 100 µM
[2]
  TGI: > 100 µM
[3]
  TGI: > 100 µM
[4]
  TGI: > 100 µM
[5]
  TGI: > 100 µM
[6]
  TGI: > 100 µM
[7]
  TGI: > 100 µM
[8]
  TGI: > 100 µM
[10]
  TGI: > 100 µM

## NC(=O)N/N=C(\Cc1nc2ccc(C(=O)c3ccccc3)cc2[nH]c1=O)C(=O)Nc1ccc(Br)cc1
[1]
  TGI: > 100 µM
[2]
  TGI: > 100 µM
[3]
  TGI: > 100 µM
[4]
  TGI: > 100 µM
[5]
  TGI: > 100 µM
[6]
  TGI: > 100 µM
[7]
  TGI: > 100 µM
[8]
  TGI: > 100 µM
[9]
  TGI: > 100 µM
[10]
  TGI: > 100 µM

## Nc1nc2c(ncn2CCOC(c2ccccc2)P(=O)(O)O)c(=O)[nH]1 (configuration not stated)
[1]
  TGI: > 100 µM
[2]
  TGI: > 100 µM
[3]
  TGI: > 100 µM
[6]
  TGI: > 100 µM
[7]
  TGI: > 100 µM
[8]
  TGI: > 100 µM
[9]
  TGI: > 100 µM
[10]
  TGI: > 100 µM

## CN(C)C(=O)CC(C(=O)O)c1c[nH]c2ccccc12 (configuration not stated)
[1]
  TGI: > 100 µM
[2]
  TGI: > 100 µM
[3]
  TGI: > 100 µM
[5]
  TGI: > 100 µM
[6]
  TGI: > 100 µM
[7]
  TGI: > 100 µM
[8]
  TGI: > 100 µM
[9]
  TGI: > 100 µM
[10]
  TGI: > 100 µM

## O=S(=O)(O)CCS
[2]
  TGI: > 100 µM
[3]
  TGI: > 100 µM
[4]
  TGI: > 100 µM
[5]
  TGI: > 100 µM
[6]
  TGI: > 100 µM
[7]
  TGI: > 100 µM
[8]
  TGI: > 100 µM
[9]
  TGI: > 100 µM
[10]
  TGI: > 100 µM

## O=c1nc2n(cc1/C=C\Br)C1CC(O)C(CO2)O1 (configuration not stated)
[1]
  TGI: 54.8 µM
[2]
  TGI: > 100 µM
[3]
  TGI: > 100 µM
[5]
  TGI: > 100 µM
[6]
  TGI: > 100 µM
[7]
  TGI: > 100 µM
[8]
  TGI: > 100 µM
[10]
  TGI: 57 µM

## O=C(CCCCCCCCC(=O)NN1C(=O)/C(=C\c2ccc(O)c(O)c2)SC1c1c(O)ccc2ccccc12)NN1C(=O)C(=Cc2ccc(O)c(O)c2)SC1c1c(O)ccc2ccccc12 (configuration not stated)
[2]
  TGI: > 100 µM
[3]
  TGI: > 100 µM
[4]
  TGI: > 62.7 µM
[5]
  TGI: > 100 µM
[6]
  TGI: > 92.7 µM
[7]
  TGI: > 100 µM
[8]
  TGI: 13 µM
[9]
  TGI: > 30.8 µM
[10]
  TGI: > 57.6 µM

From PubChem BioAssay (NCI)
